This is an account of results in US20100227844A1, “CANNABINOID-1 RECEPTOR MODULATORS USEFUL FOR THE TREATMENT OF ALZHEIMER'S DISEASE” (priority 2007, published 2010).

In assay [1] the target is recombinant human CB1 receptor (Homo sapiens, UniProt P21554). In words: Cannabinoid Receptor-1 (CB1) Binding (IC50) Assay. To be noted: [3H]CP-55940 0.6 nM, CHO cell membranes.
Assay [2] concerns the target recombinant human CB1 receptor expressed in CHO cells (Homo sapiens, UniProt P21554). In words: Cannabinoid Receptor-1 (CB1) Functional Activity (EC50) Assay. It is filed as cell-based. The following applies: forskolin-stimulated intracellular cAMP.
For another assay, the system named is mice. The following applies: Mazzola et al.; cited from earlier work.
The subject of another assay is rodent models. To be noted: naïve as well as scopolamine or Aβ-treated rodent models; Terranova et al.; cited from earlier work.
Assay [3] concerns rodent model of episodic memory. To be noted: in combination with Donepezil; Wise et al.; cited from earlier work.

Sequence of recombinant human CB1 receptor expressed in CHO cells (P21554 whole entry): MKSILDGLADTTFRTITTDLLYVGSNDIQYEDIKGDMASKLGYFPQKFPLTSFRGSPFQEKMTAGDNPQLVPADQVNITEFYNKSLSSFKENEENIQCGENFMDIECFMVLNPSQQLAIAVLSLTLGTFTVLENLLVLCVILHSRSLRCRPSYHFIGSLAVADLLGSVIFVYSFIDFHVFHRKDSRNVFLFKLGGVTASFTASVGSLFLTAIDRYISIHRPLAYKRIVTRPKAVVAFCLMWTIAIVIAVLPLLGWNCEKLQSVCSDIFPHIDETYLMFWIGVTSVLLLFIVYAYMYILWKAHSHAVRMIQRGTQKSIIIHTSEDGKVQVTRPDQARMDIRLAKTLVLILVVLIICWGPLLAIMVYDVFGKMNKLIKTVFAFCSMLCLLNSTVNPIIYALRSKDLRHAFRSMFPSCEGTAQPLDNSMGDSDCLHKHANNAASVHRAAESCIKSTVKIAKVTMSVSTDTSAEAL
Sequence of recombinant human CB1 receptor (P21554 whole entry): as above

Broadly, the IC50 is the concentration that inhibits the measured activity by half. What is called EC50 is the concentration that produces a half-maximal response. As to `CC(NC(=O)C(C)(C)Oc1ccccn1)C(Cc1ccc(Cl)cc1)c1cc(F)cc(F)c1` (single isomer, unassigned) [Example I-25, N-[3-(4-Chloro-phenyl)-2-(3,5-difluorophenyl)-1-methylpropyl]-2-methyl-2-(2-pyridyloxy)-propanamide], the IC50 in assay [1] turned out to be 0.45 nM. The EC50 in assay [2] worked out at 1.33 nM. For `CC(NC(=O)C(C)(C)Oc1ccc(C(F)(F)F)cn1)C(Cc1ccc(Cl)cc1)c1cncc(C#N)c1` (single isomer, unassigned) [Example I-39, N-[3-(4-Chloro-phenyl)-2-(5-cyano-3-pyridyl)-1-methylpropyl]-2-(5-trifluoromethyl-2-pyridyloxy)-2-methylpropanamide], in that order: 3 nM and 1.5 nM. Take `CC(C)CC(c1cccc(C#N)c1)C(C)NC(=O)C(C)(C)Oc1ccc(C(F)(F)F)cn1` (single isomer, unassigned) [Example I-60, N-(2-(3-cyano-phenyl)-1,4-dimethylpentyl)-2-methyl-2((5-(trifluoromethyl)-pyridin-2-yl)oxy)-propanamide]: the IC50 in assay [1] is 1.39 nM. In assay [2], the EC50 was determined as 2 nM. Take `CC(NC(=O)C(C)(C)Oc1ccc(C(F)(F)F)cn1)C(CC1CCCC1)c1cccc(C#N)c1` (single isomer, unassigned) [Example I-62, N-(2-(3-cyano-phenyl)-3-cyclopentyl-1-methylpropyl)-2-methyl-2((5-(trifluoromethyl)-pyridin-2-yl)oxy)-propanamide]: the concentration for half-maximal inhibition (IC50) in assay [1] amounted to 0.33 nM. For the same compound, the EC50 in assay [2] is 2 nM.

For the compound `CC(NC(=O)C(C)(C)Oc1ccccn1)C(Cc1ccc(Cl)cc1)c1ccccc1` (stereo not drawn) [Example I-6, N-[3-(4-Chloro-phenyl)-1-methyl-2-phenylpropyl]-2-(2-pyridyloxy)-2-methylpropanamide], in assay [1], the 50% inhibitory concentration (IC50) was determined as 2.3 nM. Also, in assay [2], the EC50 was determined as 2.1 nM. On to `CC(NC(=O)C(C)(C)Oc1cc(C(F)(F)F)ncn1)C(Cc1ccc(Cl)cc1)c1cccc(C#N)c1` (stereo not drawn) [Example I-36, N-[3-(4-Chloro-phenyl)-2-(3-cyanophenyl)-1-methylpropyl]-2-(6-trifluoromethyl-4-pyrimidyloxy)-2-methylpropanamide], for which, in assay [1], the IC50 is 0.66 nM. The EC50 in assay [2] turned out to be 1.25 nM.

In the case of `CC(NC(=O)C(C)(C)Oc1ccc(Cl)cn1)C(Cc1ccc(Cl)cc1)c1ccsc1` (stereo not drawn) [Example I-59], the IC50 in assay [1] amounted to 7.28 nM. Further, in assay [2], the EC50 is 14 nM. As for `CC(NC(=O)C(C)(C)Oc1ccc(C(F)(F)F)cn1)C(Cc1ccc(Cl)cc1)c1cc(C#N)c[n+]([O-])c1` (stereo not drawn) [Example I-64], the IC50 in assay [1] stood at 29.4 nM. Besides, the EC50 in assay [2] was 13 nM. With `CC(C)(F)[C@H](c1cc(F)cc(C#N)c1)C1CN([C@@H](c2ccc(C#N)cc2)c2cccc(C#N)c2)C1` [II], the IC50 in assay [1] was determined as 3 nM. Further, the EC50 in assay [2] amounted to 2 nM.

For `Cc1c(C(=O)NN2CCCCC2)nn(-c2ccc(Cl)cc2Cl)c1-c1ccc(Cl)cc1` [SR 141716], the “effect on memory deficit induced by Aβ-administration” value in the assay with mice was “improves the memory deficit”. Turning to `Cc1c(C(=O)NN2CCCCC2)nn(-c2ccc(Cl)cc2Cl)c1-c1ccc(Cl)cc1` [rimonabant], the “effect on learning and memory performance” value in the assay with rodent models is “improves learning and memory performance”. In assay [3], the “effect on cognition scores” value is reported as “additive effects on cognition scores”.
